The values that follow come from patent publication US9206219B2, “17-hydroxy-17-pentafluorethyl-estra-4,9(10)-dien-11-aryl derivatives, methods for the production thereof and the use thereof for treating diseases” (Bayer Intellectual Property GmbH, priority 2009, dated 2015).

The nature of data set [1]: Metabolic stability in rat liver microsomes. Type of data set: in vitro ADME. The following applies: calculated from liver microsome clearance. The method, then:
(§1) Determination of Metabolic Stability in Human and Rat Liver Microsomes
(§2) The incubations were conducted with 2.4 ml of HLM solution (protein content 0.5 mg/ml), 30 μl of the test compound (final concentration 1 μM) and 0.6 ml of the cofactor mixture (=NADPH-generating system composed of 3 IU glucose-6-phosphate dehydrogenase, 14.6 mg glucose-6-phosphate, 1.2 mg NADP) at 37° C. in 100 mM phosphate buffer at pH 7.4. Samples were taken at 6 time points (2-60 min) and precipitated with an equal volume of methanol, and the recovery of the test substances used in the supernatant was determined by LC-MS/MS analysis. The half-life of substance degradation determined therefrom was used to calculate what is called the intrinsic clearance of the substance in the liver microsome preparation. […] In addition, under the assumptions that (i) absorption of the test substance is 100%, and (ii) the first pass is completely reflected by liver microsome metabolism, a maximum oral bioavailability (Fmax) was calculated.

The target of data set [2] is T1, human progesterone receptor B (Homo sapiens, UniProt P06401).
T1 construct: expressed in transfected cells; host or cells: SK-N-MC human neuroblastoma cells, stably transfected with pRChPR-B-neo and pMMTV-LUC
T1 sequence (P06401 1-933): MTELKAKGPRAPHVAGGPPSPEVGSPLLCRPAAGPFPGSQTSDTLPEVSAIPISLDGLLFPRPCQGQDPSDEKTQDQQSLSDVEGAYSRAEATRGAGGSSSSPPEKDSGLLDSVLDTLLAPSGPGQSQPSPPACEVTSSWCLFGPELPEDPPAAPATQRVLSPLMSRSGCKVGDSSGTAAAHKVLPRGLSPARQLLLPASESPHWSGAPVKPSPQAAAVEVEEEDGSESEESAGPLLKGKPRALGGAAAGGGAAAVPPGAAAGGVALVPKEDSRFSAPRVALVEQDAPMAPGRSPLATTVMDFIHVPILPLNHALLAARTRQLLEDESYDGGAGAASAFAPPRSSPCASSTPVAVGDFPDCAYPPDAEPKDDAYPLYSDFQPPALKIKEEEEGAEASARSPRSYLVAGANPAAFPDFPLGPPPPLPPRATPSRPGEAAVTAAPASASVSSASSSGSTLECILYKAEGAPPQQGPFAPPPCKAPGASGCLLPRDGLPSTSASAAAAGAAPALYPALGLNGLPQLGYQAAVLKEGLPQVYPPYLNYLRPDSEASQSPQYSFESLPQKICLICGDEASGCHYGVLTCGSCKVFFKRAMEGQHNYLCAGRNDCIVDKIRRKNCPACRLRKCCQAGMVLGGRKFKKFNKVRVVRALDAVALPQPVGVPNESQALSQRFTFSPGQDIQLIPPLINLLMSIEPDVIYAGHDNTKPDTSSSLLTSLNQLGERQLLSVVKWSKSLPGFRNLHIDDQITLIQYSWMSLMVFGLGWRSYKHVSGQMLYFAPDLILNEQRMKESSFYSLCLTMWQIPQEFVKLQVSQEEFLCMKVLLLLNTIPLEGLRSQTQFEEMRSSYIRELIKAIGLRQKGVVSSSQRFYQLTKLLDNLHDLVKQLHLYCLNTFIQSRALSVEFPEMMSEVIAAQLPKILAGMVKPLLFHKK
The experiment in a line: Progesterone receptor-antagonistic action in stably transfected SK-N-MC cells, MMTV-LUC reporter (PR-B). Type of data set: cell-based. To be noted: antagonistic potency vs 0.1 nmol/l promegestone, 24 hours. The method in brief: (§3)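 Stably transfected SK-N-MC cells express human PR-B or PR-A plus MMTV-LUC. For antagonism they were co-treated with 0.1 nmol/l promegestone and compound (0.01 nmol/l upward) for 24 hours. Luciferase in lysates was read as RLU and reported as % efficacy and IC50.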

The target of data set [3] is T2, human progesterone receptor A (Homo sapiens, UniProt P06401).
T2 construct: expressed in transfected cells; host or cells: SK-N-MC human neuroblastoma cells, stably transfected with pRChPR-A-neo and pMMTV-LUC
T2 sequence (P06401 1-769 isoform P06401-2): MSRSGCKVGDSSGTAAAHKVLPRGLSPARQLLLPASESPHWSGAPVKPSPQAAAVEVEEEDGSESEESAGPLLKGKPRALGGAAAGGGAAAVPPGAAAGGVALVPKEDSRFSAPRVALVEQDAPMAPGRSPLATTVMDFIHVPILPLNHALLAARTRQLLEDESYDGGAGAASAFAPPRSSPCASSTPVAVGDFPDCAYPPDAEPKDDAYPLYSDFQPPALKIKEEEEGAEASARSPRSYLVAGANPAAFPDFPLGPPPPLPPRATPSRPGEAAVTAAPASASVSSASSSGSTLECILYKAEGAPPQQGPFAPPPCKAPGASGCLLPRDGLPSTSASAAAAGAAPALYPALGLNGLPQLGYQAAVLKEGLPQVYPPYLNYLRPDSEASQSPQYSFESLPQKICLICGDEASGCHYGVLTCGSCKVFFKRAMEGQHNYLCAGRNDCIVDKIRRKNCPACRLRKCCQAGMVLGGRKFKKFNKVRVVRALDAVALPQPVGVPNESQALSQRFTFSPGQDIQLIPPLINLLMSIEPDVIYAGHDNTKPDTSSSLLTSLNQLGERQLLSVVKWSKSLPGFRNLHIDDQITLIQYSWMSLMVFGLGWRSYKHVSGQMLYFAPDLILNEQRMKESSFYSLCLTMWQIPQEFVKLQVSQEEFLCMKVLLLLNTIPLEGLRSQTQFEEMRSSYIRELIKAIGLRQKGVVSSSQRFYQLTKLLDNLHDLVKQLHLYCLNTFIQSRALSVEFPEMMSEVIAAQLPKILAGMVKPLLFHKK
In words: Progesterone receptor-antagonistic action in stably transfected SK-N-MC cells, MMTV-LUC reporter (PR-A). The following applies: antagonistic potency vs 0.1 nmol/l promegestone, 24 hours. Type of data set: cell-based. The method in brief: as §3

A short description of data set [4]: Metabolic stability in human liver microsomes. To be noted: calculated from liver microsome clearance. Type of data set: in vitro ADME. The method, then: as §1
Isolated human liver microsomes (HLM) were used to assess the metabolic stability of compounds of general formula I.
as §2

A word on the IC50: it is the midpoint of a concentration-inhibition curve. A lower IC50 goes with higher potency. As for `CC1(c2ccc([C@H]3C[C@@]4(C)[C@@H](CC[C@@]4(O)C(F)(F)C(F)(F)F)[C@@H]4CCC5=CC(=O)CCC5=C43)cc2)CC1` [Example 4, (8S,11R,13S,14S,17S)-17-hydroxy-13-methyl-11-[4-(1-methylcyclopropyl)phenyl]-17-pentafluoroethyl-1,2,6,7,8,11,12,13,14,15,16,17-dodecahydrocyclopenta[a]phenanthren-3-one], the results for the “Predicted Fmax (maximum oral bioavailability)” value (from here on “Predicted Fmax”) in data set [1] and in data set [4] were 52% and 37%, respectively. Besides, the IC50 in data set [2] and in data set [3] was 0.012 nM each time.
`CC(C)(O)c1ccc([C@H]2C[C@@]3(C)[C@@H](CC[C@@]3(O)C(F)(F)C(F)(F)F)[C@@H]3CCC4=CC(=O)CCC4=C32)cc1` [Example 5, (8S,11R,13S,14S,17S)-17-hydroxy-11-[4-(1-hydroxy-1-methylethyl)phenyl]-13-methyl-17-pentafluoroethyl-1,2,6,7,8,11,12,13,14,15,16,17-dodecahydrocyclopenta[a]phenanthren-3-one]: the “Predicted Fmax” value is given as 52% in data set [1] and 44% in data set [4]. The half-inhibitory concentration (IC50) in data set [2] was 0.09 nM; in data set [3], 0.016 nM.
The corresponding values for `CC(CO)(CO)c1ccc([C@H]2C[C@@]3(C)[C@@H](CC[C@@]3(O)C(F)(F)C(F)(F)F)[C@@H]3CCC4=CC(=O)CCC4=C32)cc1` [Example 15A, (8S,11R,13S,14S,17S)-17-hydroxy-11-[4-(2-hydroxy-1-hydroxymethyl-1-methylethyl)phenyl]-13-methyl-17-pentafluoroethyl-1,2,6,7,8,11,12,13,14,15,16,17-dodecahydrocyclopenta[a]phenanthren-3-one] are 59%, 8.5%, 0.1 nM and 0.09 nM.
Take `CC1(C)OCC(C)(c2ccc([C@H]3C[C@@]4(C)[C@@H](CC[C@@]4(O)C(F)(F)C(F)(F)F)[C@@H]4CCC5=CC(=O)CCC5=C43)cc2)CO1` [Example 15B, (8S,11R,13S,14S,17S)-17-hydroxy-13-methyl-17-pentafluoroethyl-11-[4-(2,2,5-trimethyl-[1,3]dioxan-5-yl)phenyl]-1,2,6,7,8,11,12,13,14,15,16,17-dodecahydrocyclopenta[a]phenanthren-3-one]: the “Predicted Fmax” value is 4.7% in data set [1] and 5.0% in data set [4]. The IC50 in data set [2] and in data set [3] was 0.01 nM throughout.
In the case of `CCNC(=O)NCc1ccc([C@H]2C[C@@]3(C)C(CC[C@@]3(O)C(F)(F)C(F)(F)F)C3CCC4=CC(=O)CCC4=C32)cc1` (stereo partly drawn) [Example 17, 1-ethyl-3-[4-((8S,11R,13S,14S,17S)-17-hydroxy-13-methyl-3-oxo-17-pentafluoroethyl-2,3,6,7,8,11,12,13,14,15,16,17-dodecahydro-M-cyclopenta[a]phenanthren-11-yl)benzyl]urea], in data set [1], the “Predicted Fmax” value was 63%. For the same compound, the IC50 in data set [2] worked out at 0.8 nM; in data set [3], 0.4 nM.
The corresponding values for `C[C@]12C[C@H](c3ccc(CNC(=O)NCc4ccccc4)cc3)C3=C4CCC(=O)C=C4CC[C@H]3[C@@H]1CC[C@@]2(O)C(F)(F)C(F)(F)F` [Example 23, 1-benzyl-3-[4-((8S,11R,13S,14S,17S)-17-hydroxy-13-methyl-3-oxo-17-pentafluoroethyl-2,3,6,7,8,11,12,13,14,15,16,17-dodecahydro-1H-cyclopenta[a]phenanthren-11-yl)benzyl]urea] are 29%, 0.8 nM and 0.3 nM.
For `C[C@]12C[C@H](c3ccc(CNC(=O)Nc4ccccc4)cc3)C3=C4CCC(=O)C=C4CC[C@H]3[C@@H]1CC[C@@]2(O)C(F)(F)C(F)(F)F` [Example 24, 1-[4-((8S,11R,13S,14S,17S)-17-hydroxy-13-methyl-3-oxo-17-pentafluoroethyl-2,3,6,7,8,11,12,13,14,15,16,17-dodecahydro-1H-cyclopenta[a]phenanthren-11-yl)benzyl]-3-phenyl urea], the “Predicted Fmax” value in data set [1] is given as 77%. For the same compound, the 50% inhibitory concentration (IC50) was 0.5 nM in data set [2] and 0.4 nM in data set [3].
For `C[C@]12C[C@H](c3ccc(-c4ccc(-c5nnn[nH]5)cc4)cc3)C3=C4CCC(=O)C=C4CC[C@H]3[C@@H]1CC[C@@]2(O)C(F)(F)C(F)(F)F` [Example 29, (8S,11R,13S,14S,17S)-17-hydroxy-13-methyl-17-pentafluoroethyl-11-[4′-(1H-tetrazol-5-yl)biphenyl-4-yl]-1,2,6,7,8,11,12,13,14,15,16,17-dodecahydrocyclopenta[a]phenanthren-3-one], the “Predicted Fmax” value in data set [1] is listed as 93%; in data set [4], 69%. The results for the concentration for half-maximal inhibition (IC50) in data set [2] and in data set [3] were 0.9 nM and 0.3 nM, respectively.
On the same counts, the results for `C[C@]12C[C@H](c3ccc(C#N)cc3)C3=C4CCC(=O)C=C4CC[C@H]3[C@@H]1CC[C@@]2(O)C(F)(F)C(F)(F)F` [Example 30, 4-((8S,11R,13S,14S,17S)-17-hydroxy-13-methyl-3-oxo-17-pentafluoroethyl-2,3,6,7,8,11,12,13,14,15,16,17-dodecahydro-1H-cyclopenta[a]phenanthren-11-yl)benzonitrile] are 79%, 63%, 0.08 nM and 0.02 nM.
Consider `CCNC(=O)OCc1ccc([C@H]2C[C@@]3(C)[C@@H](CC[C@@]3(O)C(F)(F)C(F)(F)F)[C@@H]3CCC4=CC(=O)CCC4=C32)cc1` [Example 41, ethylcarbamic acid 4-((8S,11R,13S,14S,17S)-17-hydroxy-13-methyl-3-oxo-17-pentafluoroethyl-2,3,6,7,8,11,12,13,14,15,16,17-dodecahydro-1H-cyclopenta[a]phenanthren-11-yl)benzyl ester], for which the “Predicted Fmax” value in data set [1] is recorded as 49%. In addition, the figures for the IC50 in data set [2] and in data set [3] were 0.1 nM and 0.09 nM, respectively.
